From patent US20230157996A1, “SMALL-MOLECULE INHIBITOR TARGETING EB VIRUS NUCLEAR ANTIGEN PROTEIN, PREPARATION METHOD AND USE THEREOF” (priority 2020, published 2023)

tested on: C666-1 cells; experiment: C666-1 cell viability single concentration (50 μM) inhibition rate (Resazurin); assay type: cell-based; conditions: 50 μM compound, 72 hours, C666-1 cells
Method: In order to assess the effect of the EBNA1 inhibitor at the cellular level, the cell proliferation inhibition rate was tested, and the inhibition rate of inhibitor at a specific concentration on the proliferation of Epstein-Barr virus positive cell line C666-1 was detected.
In the test, 100 μL C666-1 cells were inoculated in a transparent 96-well plate, and each well contained 5×10^3 cells. After the cells were cultured in an incubator with 5% carbon dioxide at 37° C. for 24 hours, 10 μL compound at a concentration of 500 μmol/L was added into the cells, so that the final concentration of the compound was 50 μmol/L. Two replicate wells were set for each compound, the wells treated with DMSO were set as control wells (Ctrl), and the wells with cell culture medium only were set as blank wells (blank), and they were treated in the incubator with carbon dioxide at 37° C. for 72 hours. The cell viability was assessed using a redox indicator Resazurin. Specifically, 10 μL Resazurin at a concentration of 600 umol/L was added into each well, and incubated at 37° C. for 3 hours, and a Tecan microplate reader was used to detect the fluorescence signal at an excitation wavelength of 560 nm and an emission wavelength of 590 nm. The formula inh %=1−(F−Fblank)/(FCtrl−Fblank)×100% (where, F is the fluorescence intensity of the compound-added wells, FCtrl and Fblank are the readings of the control wells and blank wells, respectively) was used to calculate the inhibition rate of the compound on the proliferation of C666-1 cells, so as to assess the activity of the compound on Epstein-Barr virus positive cells.

| Compound | C666-1 cell viability single concentration (50 μM) inhibition rate, Ratio* (Inh %) |
| --- | --- |
| COC(=O)c1cccc(N2CC(Oc3ccccc3)C2)c1-n1cccc1 [Example 257, Methyl 3-((3-phenoxy)azetidin-1-yl)-2-(1H-pyrrol-1-yl)benzoate] | ++ (10%-30% ++) |

same assay, conditions: Homo sapiens, C6661, 72 h, 50 μM compound, 72 hours, C666-1 cells; read-out: C666-1 cell viability single concentration (50 μM) inhibition rate, Ratio* (Inh %)

| Compound | inhibition at 50 µM [%] |
| --- | --- |
| O=C(Nc1ccc(OC2CN(c3cccc(C(=O)O)c3-n3cccc3)C2)cc1)c1cccs1 [Example 123, 2-(1H-pyrrol-1-yl)-3-(3-(4-(thiophene-2-formamido)phenoxy)azetidin-1-yl)benzoic acid] | < 10 |
| O=C(O)c1cccc(N2CC(Oc3ccccc3)C2)c1-n1cccc1 [Example 102, 3-(3-phenoxyazetidin-1-yl)-2-(1H-pyrrol-1-yl)benzoic acid] | < 10 |
| COC(=O)c1cccc(N2CC(Oc3ccc(Sc4ccccc4)cc3)C2)c1-n1cccc1 [Example 208, Methyl 3-(3-(4-(thiophenyl)phenoxy)azetidin-1-yl)-2-(1H-pyrrol-1-yl)benzoate] | < 10 |
| COC(=O)c1cccc(N2CC(Oc3ccc(C(C)O)cc3)C2)c1-n1cccc1 (stereo not shown) [Compound 89, Methyl 3-(3-(4-(1-hydroxyethyl)phenoxy)azetidin-1-yl)-2-(1H-pyrrol-1-yl)benzoate] | > 50 |
| COC(=O)c1cccc(N2CC(Oc3ccc(C(F)(F)F)cc3)C2)c1-n1cccc1 [Compound 81, Methyl 2-(1H-pyrrol-1-yl)-3-(3-(4-(trifluoromethyl)phenoxy)azetidin-1-yl)benzoate] | 10 to 30 |
| O=C(O)c1cccc(C23CC(c4ccccc4)(C2)C3)c1 [Compound 4, 3-(3-phenylbicyclo[1.1.1]pentan-1-yl)benzoic acid] | < 10 |
| COC(=O)c1cccc(C#CN(Cc2ccccc2)S(=O)(=O)c2ccc(C)cc2)c1-n1cccc1 [Example 271, Methyl 3-(((N-benzyl-4-methylphenyl)sulfonamido)ethynyl)-2-(1H-pyrrol-1-yl)benzoate] | > 50 |
| CN(C)c1ccc(OC2CN(c3cccc(C(=O)O)c3-n3cccc3)C2)cc1 [Example 98, 3-(3-(4-(dimethylamino)phenoxy)azetidin-1-yl)-2-(1H-pyrrol-1-yl)benzoic acid] | 10 to 30 |
| COC(=O)c1cccc(C#CN(Cc2ccccc2)S(=O)(=O)c2ccccc2)c1-n1cccc1 [Example 340, Methyl 3-((N-benzyl-N-phenylsulfonamido)ethynyl)-2-(1H-pyrrol-1-yl)benzoate] | < 10 |
| COC(=O)c1cccc(C#CN(Cc2ccccc2)S(=O)(=O)c2cccs2)c1-n1cccc1 [Example 322, Methyl 3-((N-benzylthiophen-2-sulfonamido)ethynyl)-2-(1H-pyrrol-1-yl)benzoate] | 10 to 30 |
| COC(=O)c1cccc(N2CC(Oc3ccc(COc4ccc(Cl)cc4)cc3)C2)c1-n1cccc1 [Example 240, Methyl 3-(3-(4-((4-chlorophenoxy)methyl)phenoxy)azetidin-1-yl)-2-(1H-pyrrol-1-yl)benzoate] | < 10 |
| COC(=O)c1cccc(N2CC(Oc3ccc(C#N)cc3)C2)c1-n1cccc1 [Compound 93, Methyl 3-(3-(4-cyanophenoxy)azetidin-1-yl)-2-(1H-pyrrol-1-yl)benzoate] | 30 to 50 |
| COc1cc(OC2CN(c3cccc(C(=O)O)c3-n3cccc3)C2)ccc1OCCNC(C)=O [Example 221, 3-(3-(4-(2-acetylaminoethoxy)-3-methoxyphenoxy)azetidin-1-yl)-2-(1H-pyrrol-1-yl)benzoic acid] | < 10 |
| COC(=O)c1cccc(N2CC(Oc3ccc(OC(F)(F)F)cc3)C2)c1-n1cccc1 [Compound 83, Methyl 2-(1H-pyrrol-1-yl)-3-(3-(4-(trifluoromethoxy)phenoxy)azetidin-1-yl)benzoate] | > 50 |
| O=C(O)c1cccc(N2CC(NS(=O)(=O)C3CC3)C2)c1-n1cccc1 [Example 183, 3-(3-(cyclopropylsulfonamido)azetidin-1-yl)-2-(1H-pyrrol-1-yl)benzoic acid] | < 10 |
| COC(=O)c1cccc(N2CC(Oc3ccc(COc4cccc(F)c4)cc3)C2)c1-n1cccc1 [Example 247, Methyl 3-(3-(4-((3-fluorophenoxy)methyl)phenoxy)azetidin-1-yl)-2-(1H-pyrrol-1-yl)benzoate] | 10 to 30 |
| COC(=O)c1cccc(N2CC(Oc3ccc(C(=O)Nc4ccc(F)cc4)cc3)C2)c1-n1cccc1 [Example 267, Methyl 3-(3-(4-((4-fluorophenyl)carbamoyl)phenoxy)azetidin-1-yl)-2-(1H-pyrrol-1-yl)benzoate] | < 10 |
| CCCCCCCC(=O)OCc1ccc(OC2CN(c3cccc(C(=O)OC)c3-n3cccc3)C2)cc1 [Compound 75, Methyl 3-(3-(4-((octanoyloxy)methyl)phenoxy)azetidin-1-yl)-2-(1H-pyrrol-1-yl)benzoate] | 10 to 30 |

| Compound | inhibition at 50 µM [%] |
| --- | --- |
| CCNC(=S)NC1CN(c2cccc(C(=O)OC)c2-n2cccc2)C1 [Example 172, Methyl 3-(3-(3-ethylthioureido)azetidin-1-yl)-2-(1H-pyrrol-1-yl)benzoate] | 10 to 30 |
| COC(=O)c1cccc(N2CC(Oc3ccc(COCCNC(C)=O)cc3)C2)c1-n1cccc1 [Example 374] | 10 to 30 |
| O=C(O)c1cccc(N2CC(OC(=S)Nc3ccc(Cl)cc3Cl)C2)c1-n1cccc1 [Example 163, 3-(3-(((2,4-dichlorophenyl)thiocarbamoyl)oxy)azetidin-1-yl)-2-(1H-pyrrol-1-yl)benzoic acid] | < 10 |
| COC(=O)c1cccc(C#CN(Cc2ccc(CO)cc2)S(=O)(=O)c2ccc(C)cc2)c1-n1cccc1 [Example 332, Methyl 3-(((N-(4-(hydroxymethyl)benzyl)-4-methylphenyl)sulfonamido)ethynyl)-2-(1H-pyrrol-1-yl)benzoate] | > 50 |
| CS(=O)(=O)Nc1cccc(-c2c(C(=O)O)cccc2N2CC(Oc3ccc(CO)cc3)C2)c1 [Example 280] | < 10 |
| CCNC(=S)OC1CN(c2cccc(C(=O)O)c2-n2cccc2)C1 [Example 161, 3-(3-((ethylthiocarbamoyl)oxy)azetidin-1-yl)-2-(1H-pyrrol-1-yl)benzoic acid] | < 10 |
| CCOCc1ccc(OC2CN(c3cccc(C(=O)OCC)c3-n3cccc3)C2)cc1 [Example 232, Ethyl 3-(3-(4-(ethoxymethyl)phenoxy)azetidin-1-yl)-2-(1H-pyrrol-1-yl)benzoate] | < 10 |
| N#CCCNC(=O)c1cccc(N2CC(Oc3ccc(CO)cc3)C2)c1-n1cccc1 [Example 368, N-(2-cyanoethyl)-3-(3-(4-(hydroxymethyl)phenoxy)azetidin-1-yl)-2-(1H-pyrrol-1-yl)benzamide] | 10 to 30 |
| Nc1c(C(=O)O)cccc1C1CC1c1ccccc1 (stereo not shown) [Example 392, 2-amino-3-(2-phenylcyclopropyl)benzoic acid] | < 10 |
| COC(=O)c1cccc(N2CC(Oc3cccc(OC)c3)C2)c1-n1cccc1 [Compound 79, Methyl 3-(3-(3-methoxyphenoxy)azetidin-1-yl)-2-(1H-pyrrol-1-yl)benzoate] | 10 to 30 |
| O=C(O)c1cccc(N2CC3(CN(c4cccc([N+](=O)[O-])c4)C3)C2)c1[N+](=O)[O-] [Compound 26, 3-(6-(3-nitrophenyl)-2,6-diazaspiro[3.3]heptan-2-yl)-2-nitrobenzoic acid] | < 10 |
| CC(=O)Nc1cccc(N2CC3(C2)CN(c2cccc(C(=O)O)c2N)C3)c1 [Compound 30, 3-(6-(3-acetylaminophenyl)-2,6-diazaspiro[3.3]heptan-2-yl)-2-aminobenzoic acid] | < 10 |
| COC(=O)c1cccc(N2CC(Oc3ccc(NC(=S)Nc4cccc(C#N)c4)cc3)C2)c1-n1cccc1 [Example 228, Methyl 3-(3-(4-(3-(3-cyanophenyl)thioureido)phenoxy)azetidin-1-yl)-2-(1H-pyrrol-1-yl)benzoate] | > 50 |
| O=C(NCc1ccco1)c1cccc(N2CC(Oc3ccc(CO)cc3)C2)c1-n1cccc1 [Example 388, N-(furan-2-yl-methyl)-3-(3-(4-(hydroxymethyl)phenoxy)azetidin 1-yl)-2-(1H-pyrrol-1-yl)benzamide] | < 10 |
| COC(=O)c1cccc(N2CC(Oc3ccc(CNc4ccccc4)cc3)C2)c1-n1cccc1 [Example 362] | < 10 |
| COC(=O)c1cccc(N2CC(Oc3ccc(Oc4ccc(C(C)=O)cc4)cc3)C2)c1-n1cccc1 [Example 206, Methyl 3-(3-(4-(4-acetylphenoxy)phenoxy)azetidin-1-yl)-2-(1H-pyrrol-1-yl)benzoate] | < 10 |
| COC(=O)c1cccc(N2CC(N(Cc3ccccc3)S(=O)(=O)c3ccc(C)cc3)C2)c1-n1cccc1 [Example 184, Methyl 3-(3-((N-benzyl-4-methylphenyl)sulfonamido)azetidin-1-yl)-2-(1H-pyrrol-1-yl)benzoate] | < 10 |

same assay, conditions: Homo sapiens, C6661, 72 h, read-out: C666-1 cell viability single concentration (50 μM) inhibition rate, Ratio* (Inh %)

| Compound | inhibition at 50 µM [%] |
| --- | --- |
| Cc1ccc(CN(C#Cc2cccc(C(=O)O)c2-n2cccc2)S(=O)(=O)c2ccc(C)cc2)cc1 [Example 343] | < 10 |
